Experimental data reported in ChEMBL document CHEMBL5523703, “Modulators for palmitoylation of proteins and small molecules” (Eur J Med Chem, 2024).
Counter-ions that a name gives are not always drawn.

Experiments:
CCF-STTG1 = experiment: Antiproliferative activity against human CCF-STTG1 cells assessed as reduction in cell growth; assay type: functional, cell-based
[1] = Binding affinity to SPT (unknown origin) assessed as inhibition constant; design: species or system Homo sapiens
[2] = biological target: T1, Carnitine O-palmitoyltransferase 1, liver isoform (Homo sapiens, UniProt P50416); experiment: Inhibition of human CPT1
T1 sequence (P50416 whole entry): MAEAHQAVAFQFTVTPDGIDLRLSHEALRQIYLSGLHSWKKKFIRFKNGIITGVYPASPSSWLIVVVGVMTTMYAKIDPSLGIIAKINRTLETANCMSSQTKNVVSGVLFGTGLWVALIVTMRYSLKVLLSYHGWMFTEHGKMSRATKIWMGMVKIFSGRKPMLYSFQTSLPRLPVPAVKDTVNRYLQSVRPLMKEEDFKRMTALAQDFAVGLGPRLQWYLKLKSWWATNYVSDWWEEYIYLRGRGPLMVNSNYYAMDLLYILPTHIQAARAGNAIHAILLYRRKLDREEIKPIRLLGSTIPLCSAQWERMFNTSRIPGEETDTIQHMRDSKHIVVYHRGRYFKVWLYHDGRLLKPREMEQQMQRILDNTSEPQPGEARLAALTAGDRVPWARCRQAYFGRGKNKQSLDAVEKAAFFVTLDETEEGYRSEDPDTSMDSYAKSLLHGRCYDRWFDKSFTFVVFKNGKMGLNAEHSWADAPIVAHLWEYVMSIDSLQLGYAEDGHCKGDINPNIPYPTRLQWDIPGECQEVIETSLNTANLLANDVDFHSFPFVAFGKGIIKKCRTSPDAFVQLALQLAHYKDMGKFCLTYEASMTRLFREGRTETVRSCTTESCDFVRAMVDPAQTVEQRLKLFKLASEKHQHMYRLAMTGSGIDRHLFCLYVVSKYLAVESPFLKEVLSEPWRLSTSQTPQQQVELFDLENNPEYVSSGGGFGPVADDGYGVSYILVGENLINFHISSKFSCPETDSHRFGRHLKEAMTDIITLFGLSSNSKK

[3] = biological target: Carnitine O-palmitoyltransferase 2, mitochondrial (Homo sapiens, UniProt P23786); experiment: Inhibition of human CPT2
[4] = Inhibition of N-terminal 6His-tagged human TEAD1 YAP-binding domain (219 to 435 residues) expressed in Escherichia coli BL21 (DE3)
[5] = biological target: Transcriptional enhancer factor TEF-1 (Homo sapiens, UniProt P28347); experiment: Inhibition of N-terminal His-tagged human TEAD1 expressed in Escherichia coli BL21 (DE3) (209 to 424 residues) by affinity chromatography analysis
[6] = Inhibition of SPT in mouse Neuro2a cells; assay type: cell-based
[7] = Inhibition of SPT (unknown origin); design: species or system Homo sapiens
[8] = biological target: Palmitoyltransferase ZDHHC3 (Homo sapiens, UniProt Q9NYG2); experiment: Inhibition of ZDHHC3 (unknown origin)
[9] = biological target: Palmitoyltransferase ZDHHC7 (Homo sapiens, UniProt Q9NXF8); experiment: Inhibition of ZDHHC7 (unknown origin)
[10] = biological target: Protein-cysteine N-palmitoyltransferase HHAT (Homo sapiens, UniProt Q5VTY9); experiment: Inhibition of His-tagged HHAT (unknown origin) transfected in HEK293FT cells; assay type: cell-based
[11] = biological target: Carnitine O-palmitoyltransferase 2, mitochondrial (Rattus norvegicus, UniProt P18886); experiment: Inhibition of rat CPT2
[12] = biological target: T2, Carnitine O-palmitoyltransferase 1, muscle isoform (Homo sapiens, UniProt Q92523); experiment: Inhibition of CPT1B (unknown origin) in KB cells; assay type: cell-based
T2 sequence (Q92523 whole entry): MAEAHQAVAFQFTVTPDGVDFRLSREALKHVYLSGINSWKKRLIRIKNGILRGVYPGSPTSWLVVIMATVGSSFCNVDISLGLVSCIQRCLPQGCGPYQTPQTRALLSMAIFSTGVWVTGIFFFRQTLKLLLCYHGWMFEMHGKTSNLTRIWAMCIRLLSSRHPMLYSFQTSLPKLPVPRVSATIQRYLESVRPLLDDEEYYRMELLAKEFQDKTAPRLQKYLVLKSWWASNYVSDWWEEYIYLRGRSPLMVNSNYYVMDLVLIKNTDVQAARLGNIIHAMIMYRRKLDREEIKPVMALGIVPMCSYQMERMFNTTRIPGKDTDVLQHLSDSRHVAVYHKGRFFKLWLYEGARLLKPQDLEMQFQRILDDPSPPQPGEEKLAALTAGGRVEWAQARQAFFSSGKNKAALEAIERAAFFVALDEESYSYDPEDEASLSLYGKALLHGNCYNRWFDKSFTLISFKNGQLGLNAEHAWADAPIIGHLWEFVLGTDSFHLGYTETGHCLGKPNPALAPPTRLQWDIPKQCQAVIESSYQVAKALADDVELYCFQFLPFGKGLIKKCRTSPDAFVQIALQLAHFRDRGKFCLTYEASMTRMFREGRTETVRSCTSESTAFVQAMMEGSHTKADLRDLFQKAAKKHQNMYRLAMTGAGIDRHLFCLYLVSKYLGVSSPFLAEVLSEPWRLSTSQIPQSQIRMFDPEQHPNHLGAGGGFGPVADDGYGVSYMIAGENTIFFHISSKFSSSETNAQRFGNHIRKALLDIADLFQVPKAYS

[13] = biological target: T3, Carnitine O-palmitoyltransferase 1, liver isoform (Rattus norvegicus, UniProt P32198); experiment: Inhibition of rat hepatocytes CPT1A; assay type: cell-based, Hepatocyte
T3 sequence (P32198 whole entry): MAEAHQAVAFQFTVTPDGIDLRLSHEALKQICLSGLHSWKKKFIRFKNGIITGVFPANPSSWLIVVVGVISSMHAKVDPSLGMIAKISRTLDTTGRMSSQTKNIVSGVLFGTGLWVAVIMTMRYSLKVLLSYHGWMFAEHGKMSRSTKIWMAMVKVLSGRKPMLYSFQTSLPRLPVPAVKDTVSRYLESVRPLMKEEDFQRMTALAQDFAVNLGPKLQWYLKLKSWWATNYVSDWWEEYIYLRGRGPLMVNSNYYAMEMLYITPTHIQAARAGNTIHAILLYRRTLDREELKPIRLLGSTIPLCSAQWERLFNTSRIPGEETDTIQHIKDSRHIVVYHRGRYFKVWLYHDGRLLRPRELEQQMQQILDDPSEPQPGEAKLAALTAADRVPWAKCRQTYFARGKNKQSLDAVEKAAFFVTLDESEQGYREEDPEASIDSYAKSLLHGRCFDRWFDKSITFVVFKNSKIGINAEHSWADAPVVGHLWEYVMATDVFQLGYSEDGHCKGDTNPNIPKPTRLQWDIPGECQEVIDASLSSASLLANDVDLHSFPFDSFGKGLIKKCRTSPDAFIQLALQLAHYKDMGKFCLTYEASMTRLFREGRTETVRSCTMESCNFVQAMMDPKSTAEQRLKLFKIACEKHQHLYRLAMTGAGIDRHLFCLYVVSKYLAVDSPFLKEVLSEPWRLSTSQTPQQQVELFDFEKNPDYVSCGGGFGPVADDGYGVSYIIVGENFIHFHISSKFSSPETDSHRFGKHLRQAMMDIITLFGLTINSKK

[14] = biological target: Tyrosine-protein kinase Lck (Homo sapiens, UniProt P06239); experiment: Inhibition of N-terminal human recombinant Lck expressed in baculovirus infected in Sf9 cells
[15] = biological target: T1, Carnitine O-palmitoyltransferase 1, liver isoform; experiment: Inhibition of CPT1 (unknown origin)
[16] = Half life in mouse by LC-MS/MS analysis; assay type: ADME; conditions: in vivo, route po
Homo sapiens [17] = species on record: Homo sapiens; experiment: Inhibition of ZDHHC (unknown origin) at 20 uM relative to control
MCF7 = experiment: Antiproliferative activity against human MCF7 cells assessed as reduction in cell growth measured after 72 hrs by MTT assay; assay type: functional, cell-based; conditions: MCF7, 72 h
Homo sapiens [18] = species on record: Homo sapiens; experiment: Binding affinity to ZDHHC (unknown origin) assessed as inactivation constant
[19] = biological target: T2, Carnitine O-palmitoyltransferase 1, muscle isoform; experiment: Inhibition of CPT1B (unknown origin)

Carnitine O-palmitoyltransferase 2, mitochondrial (Rattus norvegicus, UniProt P18886), sequence (P18886 whole entry, canonical isoform): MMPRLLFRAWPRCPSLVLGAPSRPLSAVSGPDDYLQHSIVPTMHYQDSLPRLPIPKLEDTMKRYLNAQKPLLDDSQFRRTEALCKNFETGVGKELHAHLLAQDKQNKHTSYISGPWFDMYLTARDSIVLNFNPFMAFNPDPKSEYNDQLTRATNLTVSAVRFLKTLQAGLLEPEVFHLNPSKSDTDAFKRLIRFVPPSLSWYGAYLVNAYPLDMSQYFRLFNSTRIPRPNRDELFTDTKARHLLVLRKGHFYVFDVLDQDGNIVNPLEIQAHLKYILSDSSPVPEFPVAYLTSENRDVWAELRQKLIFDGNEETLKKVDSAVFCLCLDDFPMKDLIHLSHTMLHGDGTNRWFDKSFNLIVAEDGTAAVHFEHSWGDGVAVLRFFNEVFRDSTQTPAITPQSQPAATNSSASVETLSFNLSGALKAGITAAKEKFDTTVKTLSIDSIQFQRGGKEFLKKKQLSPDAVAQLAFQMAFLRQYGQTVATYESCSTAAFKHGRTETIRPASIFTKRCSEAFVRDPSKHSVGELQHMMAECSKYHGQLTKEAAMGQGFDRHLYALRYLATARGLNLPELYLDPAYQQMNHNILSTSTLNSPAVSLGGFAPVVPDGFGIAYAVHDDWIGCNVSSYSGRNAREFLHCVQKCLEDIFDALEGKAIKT
Tyrosine-protein kinase Lck, sequence (P06239 whole entry, canonical isoform): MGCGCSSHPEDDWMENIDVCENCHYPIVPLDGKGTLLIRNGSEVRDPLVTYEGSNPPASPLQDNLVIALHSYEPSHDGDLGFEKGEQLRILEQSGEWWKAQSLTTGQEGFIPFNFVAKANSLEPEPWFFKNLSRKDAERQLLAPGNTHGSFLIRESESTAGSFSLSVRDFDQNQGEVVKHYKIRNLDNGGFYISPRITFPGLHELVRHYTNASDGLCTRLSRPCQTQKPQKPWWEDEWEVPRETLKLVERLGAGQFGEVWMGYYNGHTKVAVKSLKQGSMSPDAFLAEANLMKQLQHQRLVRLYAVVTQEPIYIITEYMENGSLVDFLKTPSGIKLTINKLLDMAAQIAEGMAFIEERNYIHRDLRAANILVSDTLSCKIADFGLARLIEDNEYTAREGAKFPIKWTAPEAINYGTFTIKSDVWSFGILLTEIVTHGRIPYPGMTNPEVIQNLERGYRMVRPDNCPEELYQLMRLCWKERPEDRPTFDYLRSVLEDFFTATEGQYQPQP
Protein-cysteine N-palmitoyltransferase HHAT, sequence (Q5VTY9 whole entry): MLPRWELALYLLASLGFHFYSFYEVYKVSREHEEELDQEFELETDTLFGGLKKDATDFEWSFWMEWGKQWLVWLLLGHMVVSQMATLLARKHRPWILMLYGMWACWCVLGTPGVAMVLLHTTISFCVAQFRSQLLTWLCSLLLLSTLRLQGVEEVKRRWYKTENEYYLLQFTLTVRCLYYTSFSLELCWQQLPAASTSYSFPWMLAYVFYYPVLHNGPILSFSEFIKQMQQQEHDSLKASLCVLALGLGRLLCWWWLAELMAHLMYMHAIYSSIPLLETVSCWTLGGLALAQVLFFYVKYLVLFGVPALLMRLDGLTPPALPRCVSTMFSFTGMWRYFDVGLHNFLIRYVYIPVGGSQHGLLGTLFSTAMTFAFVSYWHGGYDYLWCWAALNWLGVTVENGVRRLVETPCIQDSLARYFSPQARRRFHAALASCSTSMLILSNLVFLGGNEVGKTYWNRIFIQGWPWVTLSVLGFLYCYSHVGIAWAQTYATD
Palmitoyltransferase ZDHHC3, sequence (Q9NYG2 whole entry): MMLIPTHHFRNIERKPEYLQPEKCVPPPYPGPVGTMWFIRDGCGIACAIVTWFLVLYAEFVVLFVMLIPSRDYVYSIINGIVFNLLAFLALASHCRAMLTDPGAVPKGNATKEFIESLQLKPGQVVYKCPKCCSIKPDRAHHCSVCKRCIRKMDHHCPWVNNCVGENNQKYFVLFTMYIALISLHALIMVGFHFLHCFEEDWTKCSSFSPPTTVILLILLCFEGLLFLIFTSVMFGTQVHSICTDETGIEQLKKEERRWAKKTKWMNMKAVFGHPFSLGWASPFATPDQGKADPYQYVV
Carnitine O-palmitoyltransferase 2, mitochondrial (Homo sapiens, UniProt P23786), sequence (P23786 whole entry, the tested form may be a part): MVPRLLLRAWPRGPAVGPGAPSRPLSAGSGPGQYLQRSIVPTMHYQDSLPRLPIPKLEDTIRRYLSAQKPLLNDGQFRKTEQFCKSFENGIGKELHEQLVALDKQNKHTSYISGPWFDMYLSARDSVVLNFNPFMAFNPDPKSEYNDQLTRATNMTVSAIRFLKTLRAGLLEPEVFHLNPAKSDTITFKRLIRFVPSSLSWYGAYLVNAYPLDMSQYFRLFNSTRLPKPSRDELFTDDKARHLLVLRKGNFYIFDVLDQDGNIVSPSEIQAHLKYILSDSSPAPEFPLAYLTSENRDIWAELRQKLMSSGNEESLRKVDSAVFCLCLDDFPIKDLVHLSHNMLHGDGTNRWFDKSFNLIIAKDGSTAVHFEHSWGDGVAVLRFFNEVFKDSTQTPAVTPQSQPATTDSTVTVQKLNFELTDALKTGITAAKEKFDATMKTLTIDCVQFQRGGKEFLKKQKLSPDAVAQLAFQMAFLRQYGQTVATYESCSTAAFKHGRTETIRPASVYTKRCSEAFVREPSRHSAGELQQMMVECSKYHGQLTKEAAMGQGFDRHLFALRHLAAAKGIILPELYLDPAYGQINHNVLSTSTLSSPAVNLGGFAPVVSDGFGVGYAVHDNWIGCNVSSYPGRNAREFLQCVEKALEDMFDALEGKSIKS
Palmitoyltransferase ZDHHC7, sequence (Q9NXF8 whole entry): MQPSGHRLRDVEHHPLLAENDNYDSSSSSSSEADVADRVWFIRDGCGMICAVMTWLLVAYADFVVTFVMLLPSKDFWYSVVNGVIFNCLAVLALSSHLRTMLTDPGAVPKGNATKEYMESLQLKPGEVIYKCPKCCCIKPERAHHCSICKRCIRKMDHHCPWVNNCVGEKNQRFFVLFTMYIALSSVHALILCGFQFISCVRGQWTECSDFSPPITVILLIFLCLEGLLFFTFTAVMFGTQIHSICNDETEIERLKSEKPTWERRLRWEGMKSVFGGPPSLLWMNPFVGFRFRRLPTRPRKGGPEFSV
Transcriptional enhancer factor TEF-1, sequence (P28347 whole entry, the tested form may be a part): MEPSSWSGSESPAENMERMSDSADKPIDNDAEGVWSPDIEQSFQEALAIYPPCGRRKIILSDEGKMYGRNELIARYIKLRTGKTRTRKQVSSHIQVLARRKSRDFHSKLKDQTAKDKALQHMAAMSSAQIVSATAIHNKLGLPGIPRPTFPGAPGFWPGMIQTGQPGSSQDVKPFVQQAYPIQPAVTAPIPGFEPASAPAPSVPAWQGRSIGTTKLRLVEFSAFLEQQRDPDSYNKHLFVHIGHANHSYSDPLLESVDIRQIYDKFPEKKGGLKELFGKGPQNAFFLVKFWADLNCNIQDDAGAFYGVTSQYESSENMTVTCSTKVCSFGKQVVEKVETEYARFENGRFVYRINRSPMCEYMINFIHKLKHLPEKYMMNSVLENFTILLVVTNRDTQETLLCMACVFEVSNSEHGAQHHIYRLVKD

## C/C(=C\CC12OC(C)(C)C3CC(C=C4C(=O)c5c(O)cccc5OC431)C2=O)COC(=O)c1cccnc1 (configuration not stated)
CCF-STTG1
  IC50: 2.29 µM
[1]
  Ki: 1.7 µM

## COc1cccc2c1C(=O)c1c(O)c3c(c(O)c1C2=O)C[C@@](O)(C(=O)CO)C[C@@H]3O[C@H]1C[C@H](N)[C@H](O)[C@H](C)O1 [DOXORUBICIN HYDROCHLORIDE]
[2]
  IC50: 250 µM
[3]
  IC50: > 100 µM

## C=CC(=O)N1CCCN(CCCOCc2ccccc2)C1
[4]
  IC50: 0.16 µM

## C=CC(=O)N1C[C@@H](n2cc(C3CCOCC3)nn2)[C@H](OCc2ccc(C(F)(F)F)cc2)C1
[5]
  IC50: 0.045 µM

## CNC(=O)c1ccc2c(c1)CC(=O)N2C1CCN(CC(=O)N2CC3CCCC3C2)CC1 (configuration not stated)
[6]
  IC50: 9.5 µM
[7]
  IC50: 0.0273 µM

## CCCCCCCCCCCCCCC(Br)C(=O)SCCNC(C)=O (configuration not stated)
[8]
  IC50: ~50 µM
[9]
  IC50: 4.4 µM

## C=CCNCC(=O)N1CCc2sccc2C1COc1ccc(Cl)c(C)c1 (configuration not stated)
[10]
  IC50: 0.18 µM

## C1CCC(C(CC2CCCCN2)C2CCCCC2)CC1 (configuration not stated) [PERHEXILINE]
[11]
  IC50: 77 µM

## COc1ccc(Cl)cc1S(=O)(=O)N1CC(C(=O)O)Oc2ccc(C(=O)Nc3cccc(F)c3)cc21 (configuration not stated)
[12]
  IC50: 0.016 µM
[13]
  IC50: 1.34 µM

## CCCCCCCCCCCCCCC(Br)C(=O)O (configuration not stated)
[14]
  IC50: 10 µM

## N[C@H](C(=O)O)c1ccc(O)cc1 [OXFENICINE]
[15]
  IC50: 11 µM
[11]
  IC50: 79 µM

## CNS(=O)(=O)c1ccc(Nc2ccc(C(F)(F)F)cc2)c(-c2cn(C)cn2)c1
[16]
  half-life: 13.2 h

## C=CC(=O)NCc1ccc(OC(=O)c2cccc(Oc3ccccc3)c2)cc1
Homo sapiens [17]
  inhibition: 89.5%
MCF7
  IC50: 50 µM

## N[C@H]1CONC1=O
Homo sapiens [18]
  Kinact: 0.83 M⁻¹ s⁻¹

## COc1ccc(CN2CCN(CCCSc3cc(C(C)(C)C)c(O)c(C(C)(C)C)c3)CC2)c(OC)c1OC
[19]
  IC50: 16.8 µM
